Converted amounts (≈) assume the structure as drawn. Values belong to the molecule of their own block, whether it stands above or below them.
Assays:
human recombinant FKBP12 = biological target: T1, human recombinant FKBP12 (Homo sapiens, UniProt P62942); test: Test 1: immunophilin FKBP12 rotamase (peptidylprolyl isomerase) inhibiting activity; format: biochemical; settings: 12 nM human recombinant FKBP12, substrate succinyl-Ala-Phe-Pro-Phe-paranitroanilide 48 μM, 4° C.; read-out: PKBP12 rotamase inhibiting activity IC50
T1 construct: purchased Sigma F-5398
Method: (Test 1) Test for Measuring Immunophilin FKBP12 Rotamase Activity
The rotamase (peptidylprolyl isomerase) inhibiting activity of each test compound was measured by a known method (Harding et al., Nature 341, 758-760, 1989; Holts et al., J. Am. Chem. Soc. 115, 9925-9938, 1993.) To be more specific, a plastic cuvette was charged with 35 mM HEPES (pH 7.8), 12 nM human recombinant FKBP12 (Sigma, F-5398), 0.4 mg/mL α-chymotrypsin, and a test compound dissolved in DMSO at varying concentrations (DMSO's final concentration was 0.1%.) Subsequently, 24 mM of the substrate peptide, succinyl-Ala-Phe-Pro-Phe-paranitroanilide, as dissolved in trifluoroethanol containing 500 mM of LiCl was added to give a final concentration of 48 μM, whereupon reaction started. The reaction was carried out at 4° C. and the change in absorbance at 390 nm accompanying the liberation of the paranitroaniline product was monitored. A calculated initial rate minus the corresponding value in the absence of the enzyme was used as an index of rotamase activity. The rotamase inhibiting activity of a test compound was expressed in relative values (%) with respect to the control value of rotamase activity in the absence of the compound, and the concentration of the compound at which it was capable of inhibiting rotamase activity by 50% was calculated as an IC50 value from its concentration response curve.

[1] = Test 2: dissolution test in 1,3-butylene glycol/water/ethanol base; format: physicochemical; settings: base: 5 g 1,3-butylene glycol + 10 g water, ethanol to 100 mL, stirred at 25° C. for 7 days, HPLC
Method: (Test 2) Dissolution Test
To 5 g of 1,3-butylene glycol, 10 g of water was added and the mixture was stirred until homogeneity; thereafter, ethanol was added to make a total volume of 100 mL, whereby a base was prepared.

C57BL mice [2] = test: Test 3: hair development stimulating effect in shaven mouse model (Compound 1); format: in vivo; settings: 5% (w/v) solution in Test 2 base, 200 μL on shaven back once daily, day 15 of the administration and onward
Method: (Test 3) Test for Measuring Hair Development Stimulating Effect in Shaven Mouse Model
(§1) C57BL mice (female, ca. 7-wk old) were shaven on the back and the base prepared in Test 2 or a solution prepared by dissolving 5% (w/v) of Compound 1 in this base was administered by applying them to the shaven area in 200-μL portions once daily starting 3 days after the shaving (each group consisting of 10 heads.) Every 2 or 3 days after the start of the administration, the state of hair development in the shaven area was scored in accordance with the following criteria.
(§2) Criteria for scoring the hair development: 1=No hair development. 2=Hair development in less than 30% of the shaven area. 3=Hair development in at least 30% but less than 60% of the shaven area. 4=Hair development in at least 60% but less than 90% of the shaven area. 5=Hair development in at least 90% of the shaven area.

[3] = tested on: proliferating cell nuclear antigen (PCNA); test: Test 6: anagen induction stimulating effect in shaven mouse model, skin PCNA by ELISA; format: in vivo; settings: 5% (w/v) in 80% ethanol, 200 μL once daily for 2 days, skin sampled about 4 hours after second administration, C57BL mice
Method: (Test 6) Test for Measuring Anagen Induction Stimulating Effect in Shave Mouse Model
The anagen induction stimulating effect of a compound was measured by the following method with the quantity of skin PCNA being used as an index.
C57BL mice (female, ca. 7-wk old) were shaven on the back and a base (80% ethanol) or a solution prepared by dissolving 5% (w/v) of Compound 40, 52, 59, 61, 63, 64 or 66 in this base was administered by applying them to the shaven area in 200-μL portions once daily for 2 days starting 3 days after the shaving (each group consisting of 5 heads.) About 4 hours after the administration on the second day, the skin at the application site was sampled and homogenized in a buffer containing 50 mM Tris-HCl (pH 7.6), 150 mM NaCl, 1% NP-40, and a protease inhibitor. By a centrifugal separation procedure, a PCNA containing protein solution was prepared and the quantity of PCNA in the solution was measured with a PCNA-ELISA kit of Calbiochem, Inc.

[4] = Test 4: dissolution test in ethanol/water base; format: physicochemical; settings: organic solvent or mixture, thermodynamic from solid; base: 79 mL ethanol, water to 100 mL; stirred at 5° C. for 3 days; HPLC
Method: (Test 4) Dissolution Test
To 79 mL of ethanol, water was added to give a total volume of 100 mL, whereby a base was prepared. An excess amount of a test compound was put into a test tube, the prepared base was added, and the mixture was stirred at 5° C. for 3 days and passed through a membrane filter (0.45 μm); the resulting filtrate was diluted with acetonitrile and the concentration of the diluted solution was measured by HPLC to determine the solubility of the compound.

C57BL mice [5] = test: Test 5: hair development stimulating effect in shaven mouse model (Compound 40); format: in vivo; settings: 5% (w/v) solution in Test 4 base, 200 μL on shaven back once daily, day 15 of the administration and onward
Source text: as §2
(Test 5) Test for Measuring Hair Development Stimulating Effect in Shaven Mouse Model
as §1, with “Test 4” for “Test 2”, “Compound 40” for “Compound 1”, “the criteria described in Test 3.” for “the following criteria.”

T1 sequence (P62942 whole entry): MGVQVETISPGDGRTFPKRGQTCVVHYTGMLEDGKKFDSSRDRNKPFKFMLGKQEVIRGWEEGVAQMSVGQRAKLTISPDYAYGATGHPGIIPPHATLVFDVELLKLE

IC50 (human recombinant FKBP12): 182 nM
Structure (SMILES): CC1(C)CC(C)(C)CC(O)(C(F)(F)C(=O)N2CCC[C@H]2c2cc(COc3cccc(F)c3)on2)C1 [Compound 64, (S)-2,2-Difluoro-1-(2-(5-((3-fluorophenoxy)methyl)isoxazol-3-yl)pyrrolidin-1-yl)-2-(1-hydroxy-3,3,5,5-tetramethylcyclohexyl)ethanone]
quantity of skin PCNA versus base administered group [3]: increases in the quantity of skin PCNA

solubility [1]: 30.8 mg/mL
Structure (SMILES): COc1ccc(OCc2nc([C@@H]3CCCN3C(=O)C(F)(F)C3(O)CC(C)(C)CC(C)(C)C3)no2)cc1OC [comparative example, reference compound]

Continued, molecule first:

Structure (SMILES): COc1ccc(OCc2cc([C@@H]3CCCN3C(=O)C(F)(F)C3(O)CC(C)(C)CC(C)(C)C3)no2)cc1OC [Compound 1, (S)-1-(2-(5-((3,4-Dimethoxyphenoxy)methyl)isoxazol-3-yl)pyrrolidin-1-yl)-2,2-difluoro-2-(1-hydroxy-3,3,5,5-tetramethylcyclohexyl)ethanone]
IC50 (human recombinant FKBP12): 49 nM
solubility at 7 days ([1]; 1,3-butylene glycol/water/ethanol base, organic solvent or mixture, thermodynamic from solid): 57.5 mg/mL
hair development scores versus base administered group (C57BL mice [2]): higher than those in the base administered group

Structure (SMILES): CC1(C)CC(C)(C)CC(O)(C(F)(F)C(=O)N2CCC[C@H]2c2cc(COc3cccnc3)on2)C1 [Compound 40, (S)-2,2-Difluoro-2-(1-hydroxy-3,3,5,5-tetramethylcyclohexyl)-1-(2-(5-((pyridin-3-yloxy)methyl)isoxazol-3-yl)pyrrolidin-1-yl)ethanone]
quantity of skin PCNA versus base administered group [3]: higher values for the quantity of skin PCNA than the group administered with the base
solubility at 3 days [4]: 113 mg/mL (≈ 237 mM)
hair development scores versus base administered group (C57BL mice [5]): higher than those in the base administered group
IC50 (human recombinant FKBP12): 83 nM

Structure (SMILES): CC1(C)CC(C)(C)CC(O)(C(F)(F)C(=O)N2CCC[C@H]2c2cc(COc3ccncn3)on2)C1 [Compound 63, (S)-2,2-Difluoro-2-(1-hydroxy-3,3,5,5-tetramethylcyclohexyl)-1-(2-(5-((pyrimidin-4-yloxy)methyl)isoxazol-3-yl)pyrrolidin-1-yl)ethanone]
quantity of skin PCNA versus base administered group [3]: increases in the quantity of skin PCNA
IC50 (human recombinant FKBP12): 185 nM
